Patent publication US6551774B1, “Diagnostic methods for conditions associated with elevated cellular levels of telomerase activity” (Board of Regents, The University of Texas System, priority 1992, dated 2003)

Legend:
Tetrahymena cells [1] = experiment: Telomere length in vegetatively grown Tetrahymena by Southern blot; type: cell-based, Tetrahymena thermophila
Method: For analysis of macronuclear DNA from cultures containing the nucleoside analog AZT (Sigma), or controls lacking analog, at various timepoints during vegetative divisions, cells from stationary stock cultures were inoculated into 25 ml thymine-deficient Iso-sensitest broth (‘Isobroth’, Oxoid USA) in 250 ml flasks. Cultures were incubated at 30° C. with shaking (100 rpm) for 48 hours. Cells were counted and plated at 1000 cells/1.5 ml in 24-well plates (Falcon) and grown at 30° C., without shaking, for 48 hours. 5 μl of these log phase cells were used to inoculate 1 ml cultures (Isobroth) containing varied concentrations of nucleoside analog. Thereafter, every 2-4 days cells were transferred, either 5 μl per well, or 1-3 μl using a multi-pronged replicator into fresh 1 ml broth containing AZT. Remaining cells were pelleted and stored at −80° C. until processed for DNA analysis.
For analysis of macronuclear DNA from vegetative cultures containing the nucleoside analogs Ara-G (Calbiochem), ddG (Calbiochem), or ddI (Calbiochem), or controls lacking analog, stock cultures were grown overnight in 2% PPYS as described. Cells were counted and plated at 100 cells/2 ml in 2% PPYS containing varied amounts of analog, 1% DMSO (Fisher) (as a control for ddG and Ara-G), or 2% PPYS alone. Cells were replica plated into fresh medium every 2-6 days, and remaining cells were pelleted and stored at −80° C. until processed for DNA analysis.
For analysis of macronuclear DNA from vegetative cultures containing d4T (Sigma) or control lacking the analog, stock cultures (SB210 VI) were grown overnight in Isobroth as described. Cells were then counted and duplicate cultures inoculated at 500 cells/5 ml Isobroth in 50 ml conical tubes, and grown at 30° C., shaking 80 rpm. 500-2000 cells were transfered to fresh broth every 2-4 days, and the remainder pelleted and stored at −80° C. until processed for DNA analysis.
Restriction digests, agarose gel electrophoresis, transfer of DNA to Nytran filters (Schleicher and Schuell), and hybridization with ^32P-nick-trapplated or random-primed probes were carried out using standard procedures (Maniatis et.al. 1989). Telomere length was analyzed as described previously for Tetrahymena [Larson 50 Cell, 477, 1987].
Telomere lengths in cells grown in the presence of the different analogs were monitored by Southern blot analysis of DNA samples extracted at a series of time points during the subculturings. The telomeres of cells grown vegetatively in 1 and 5 mM AZT in 2% PPYS medium were reproducibly shortened by up to an average of 170 base pairs compared with the control cultures grown in 2% PPYS in the absence of the drug (FIG. 21A and B). This shortening of telomeres occured in a concentration-dependent manner (FIG. 21B), with at least 50% of the maximal shortening effect occurring by 10 μM AZT, the lowest concentration tested.

Tetrahymena cells [2] = experiment: Single-cell transfer cultures of Tetrahymena with AZT or Ara-G; type: cell-based, Tetrahymena thermophila
Method: For analysis of vegetative growth and macronuclear DNA from single-cell cultures containing the nucleoside analogs AZT or Ara-G, SB210 (VI) cells were grown from stationary stock cultures overnight at 30° C. with shaking (100 rpm) in 50 ml 2% PPYS or Isobroth. Cells were counted and added to the appropriate medium plus analog (Ara-G to 1 mM or DMSO to 1% as control in 2% PPYS; AZT to 10 μm or 1 mM, or no addition as control in Isobroth) and plated in 96-well plates (Falcon), 100 μl per well at a density of 1 cell per well. 5 plates were prepared for each analog or control. Wells were scored for cell growth and plates were replica plated every 1-2 days (Ara-G and DMSO plates) or every 2-4 days (AZT and Isobroth control plates) to maintain approximate inoculation densities of 1-10 cells per well for each passage. Occasionally individual wells were passaged by hand (1 μl inoculated per well using a pipettor) into several blank wells, to expand the number of live wells per plate as single-cell cultures were lost over time due to low probability of being transferred at each passage. After passaging, cells were pooled, pelleted and stored at −80° C. until processed for DNA analysis.
To test whether we had missed such a subpopulation of cells, we carried out the same experiments on vegetatively dividing Tetrahymena cells in the presence and absence of drug, but in these experiments the subculturing was carried out by plating cells at an average of 1 to 10 cells per well in microtiter plate wells in the presence of 10 μM and 1 mM AZT, and 10 μM and 1 mM Ara-G. For each drug, cells were plated out in this manner for 30 consecutive days (90 to 150 cell generations) and 16 consecutive days (50 to 80 cell generations) respectively for the 10 μM and 1 mM drug concentrations. DNA was isolated at intervals from combined samplings of the wells for analysis of telomere length.

[3] = 1 mM in Isobroth, single cell transfers

Cc1cn([C@H]2C[C@H](N=[N+]=[N-])[C@@H](CO)O2)c(=O)[nH]c1=O [AZT]
fraction of the maximal telomere shortening effect (Tetrahymena cells [1]; 10 μM, the lowest concentration tested): at least 50%
shortening of telomeres compared with control cultures (Tetrahymena cells [1]; 1 and 5 mM in 2% PPYS medium): ≤ 170 base pairs
plating efficiency compared with control medium (Tetrahymena cells [2]; 10 μM AZT, 10 μM or 1 mM Ara-G, 1 to 10 cells per well): no changes in the plating efficiency
mean length and size distribution of telomeric DNA of pooled fast cells (Tetrahymena cells [2]; 1 mM in Isobroth): indistinguishable from those of control cells grown without AZT
telomeric DNA of pooled slow cells (Tetrahymena cells [2]; 1 mM in Isobroth): slight decrease in mean telomere length and heterogeneity
growth rate of the fast growth class (Tetrahymena cells [2]; [3]): 2 to 4 cell doubling per day
growth rate of the slow growth class (Tetrahymena cells [2]; [3]): 0 to 1 cell doubling per day
